# Reference: article PMC7004151, “Synthesis and Structure‐Activity Relationships of N‐(4‐Benzamidino)‐Oxazolidinones: Potent and Selective Inhibitors of Kallikrein‐Related Peptidase 6” (Chemmedchem, 2019)
# Experiments:
# Thermodynamic solubility = type: physicochemical; conditions: thermodynamic from solid, Milli-Q water, 37 °C
# Experimental: Thermodynamic solubility: Test compound (3 mg) is accurately weighed into a Micronics tube. Extra tubes for each control compound, Warfarin (high solubility control) and Cinnarizine (low solubility control) were also accurately weighed. To each tube is added 1 mL of Milli‐Q water. All samples are vortexed for 20 s and placed in a bench top incubator shaker set at 1300 rpm at 37 °C for 5 h. After the incubation, samples are centrifuged at 10,000 rpm for 3 min. 100 μL aliquots of the supernatant in duplicate were placed in a 96‐well plate. All samples, calibration standards and QC samples are analyzed using a validated HPLC method on the Dionex Ultramate 3000 HPLC system. The concentration determined from the supernatant was then reported as the solubility of each compound in μg/mL.
# [1] = Kinetic aqueous solubility (laser nephelometry); type: physicochemical; conditions: Milli-Q water with […] DMSO, kinetic from dmso stock, 2.5 % DMSO
# Experimental: Kinetic aqueous solubility: The aqueous solubility of the test compounds was measured using laser Nephelometry. Compounds were subjected to serial dilution from 10 mM to 0.5 mM in DMSO. An aliquot was then mixed with Milli‐Q water to obtain an aqueous dilution plate with a final concentration range of 250–12 μM, with a final DMSO concentration of 2.5 %. Triplicate aliquots were transferred to a flat bottomed polystyrene plate which was immediately read on the NEPHELOstar (BMG Lab Technologies). The amount of laser scatter caused by insoluble particulates (relative nephelometry units, RNU) was plotted against compound concentration using a segmental regression fit, with the point of inflection being quoted as the compounds aqueous solubility (μM).
# KLK7 = target: T1, KLK7 (Homo sapiens, UniProt P49862); assay: KLK7 enzyme inhibition assay; type: biochemical; conditions: read-out: KLK7 pIC50 (converted)
# T1 construct: purchased 2B scientific
# Experimental: Enzyme inhibition assays: All chemicals were purchased from Sigma Aldrich (Gillingham, UK) unless otherwise stated. All experiments were conducted in 384 well black, low volume microplates (Greiner 784076) with a final volume of 20 μL and compounds were dispensed into assay plates using an ECHO 550 acoustic dispenser (Labcyte). KLK6 (5 nM) (prepared as in ref. 21) was incubated with test compounds for 30 min at room temperature in assay buffer (50 mM Tris, pH 7.5, 150 mM NaCl, 1 mM EDTA, 0.05 % tween 20, 0.1 % bovine serum albumin (BSA), 1 mM dithiothreitol (DTT)) before the reaction was started by addition of 20 μM Boc‐Phe‐Ser‐Arg‐AMC substrate (Bachem). Fluorescence intensity was read at ex/em 355/460 following incubation for 2 h in the dark at room temperature.
# Assays using KLK7 and KLK8 (2B scientific) were conducted in the same manner as for KLK6 with the following exceptions. Both KLK7 and KLK8 required activation before assaying. KLK7 was combined with an equal volume of 20 μg/ml thermolysin (R&D systems) in activation buffer (50 mM Tris, pH 7.5, 10 mM CaCl2, 150 mM NaCl and 0.05 % Brij‐L23) and incubated at 37 °C for 2 h, the reaction was stopped with the addition of 100 mM EDTA in stop solution (50 mM Tris, 150 mM NaCl, pH 8.5). KLK8 was combined with an equal volume of 0.4 mU/mL lysyl endopeptidase (Alpha laboratories) in activation buffer (50 mM Tris, pH 8.0) and incubated at 37 °C for 30 min. Activated KLK7 (40 nM) and KLK8 (25 nM) were assayed with 40 μM Mca‐RPKPVE‐Nval‐WRK(Dnp)‐NH2 fluorogenic MMP substrate (R&D systems) and 25 μM Boc‐V‐P‐R‐AMC substrate (R&D systems), respectively.
# T1 sequence (P49862 30-253, species assumed): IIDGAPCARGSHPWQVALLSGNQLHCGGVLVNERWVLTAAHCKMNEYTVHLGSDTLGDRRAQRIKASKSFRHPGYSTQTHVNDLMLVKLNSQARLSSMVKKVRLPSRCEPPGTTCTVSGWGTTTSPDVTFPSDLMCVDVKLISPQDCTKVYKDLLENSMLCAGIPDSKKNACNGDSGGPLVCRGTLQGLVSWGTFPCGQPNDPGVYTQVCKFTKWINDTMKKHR
smiles,measurement,setting,value
"CC[C@H](NC(=O)[C@H]1CN(c2ccc(C(=N)N)cc2)C(=O)O1)c1cccc2ccccc12 [Compound 32, (5R)‐3‐(4‐carbamimidoylphenyl)‐N‐((S)‐1‐(naphthalen‐1‐yl)propyl)‐2‐oxooxazolidine‐5‐carboxamide]",solubility thermodynamic at 5 h,Thermodynamic solubility,2300 µM
same,solubility kinetic,[1],> 250 µM
same,IC50,KLK7,> 20 µM
